US10144742B2 (Millennium Pharmaceuticals, Inc., priority 2014, dated 2018)

Tests used:
[1] = biological target: hNAMPT protein (Homo sapiens (Human), UniProt P43490); assay: NAMPT enzyme assay (TR-FRET/HTRF, BodiPY ligand, anti 6His-Tb); format: binding; conditions: for inhibition at 1 µM: NAMPT inhibition at compound concentration 1 μM, read-out: Percent Inhibition; for IC50: NAMPT inhibition, IC50 range class, read-out: IC50
In short: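 Compound or DMSO was incubated for 1 h at room temperature, protected from light, with BodiPY ligand and hNAMPT labelled by terbium anti-6His antibody. The 520 nm to 486 nm emission ratio after 320 nm excitation gave inhibition versus vehicle, from which concentration-response curves yielded IC50.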

[2] = tested on: PC3 cells; assay: PC3 growth inhibition (Cell-titer glo, 72 hours); format: cell-based; conditions: Homo sapiens, PC-3; compound concentration 1.667 μM; PC3 cells, 72 hours, Cell-titer glo; read-out: Percent Inhibition (PC3 growth inhibition)
In short: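 Compounds in AIM serum-free medium were applied for 72 h at 37 °C, 5% CO2 to PC3 cells plated overnight from RPMI1640 culture. Luminescence after 10 min CellTiter-Glo, normalised to DMSO, gave % viability at 1 μM or 1.667 μM, or GI50/LD50.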

[3] = tested on: collagen-induced arthritis; conditions: cited from earlier work
[4] = tested on: experimental autoimmune encephalomyelitis (EAE); conditions: model of T-cell mediated autoimmune disorders; cited from earlier work
[5] = tested on: activated T cells; conditions: cited from earlier work

Chain of hNAMPT protein (P43490 whole entry): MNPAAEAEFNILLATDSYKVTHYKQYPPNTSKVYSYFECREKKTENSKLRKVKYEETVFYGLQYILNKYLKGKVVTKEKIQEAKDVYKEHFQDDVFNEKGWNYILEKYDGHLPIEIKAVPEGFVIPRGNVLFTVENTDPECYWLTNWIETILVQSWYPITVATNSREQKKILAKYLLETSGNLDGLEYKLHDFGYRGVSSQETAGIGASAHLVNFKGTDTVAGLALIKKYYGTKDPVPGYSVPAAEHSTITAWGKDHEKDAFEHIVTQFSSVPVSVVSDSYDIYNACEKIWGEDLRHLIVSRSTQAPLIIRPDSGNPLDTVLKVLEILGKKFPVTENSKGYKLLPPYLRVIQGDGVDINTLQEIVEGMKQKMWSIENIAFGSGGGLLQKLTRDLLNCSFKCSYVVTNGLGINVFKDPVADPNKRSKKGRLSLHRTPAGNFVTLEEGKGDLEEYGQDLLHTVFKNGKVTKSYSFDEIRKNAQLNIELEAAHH

| Compound | inhibition at 1 µM [1] [%] | IC50 [1] [nM] | inhibition at 1.667 µM [2] [%] | efficacy in animal models of arthritis [3] | effect on manifestations of EAE [4] | effect on activated T cells [5] |
| --- | --- | --- | --- | --- | --- | --- |
| Cc1ccc(-c2nc3cc(C(=O)NCCCc4ncc[nH]4)ccc3nc2-c2ccc(F)cc2)cc1 [Compound I-497, 2-(4-fluorophenyl)-N-[3-(1H-imidazol-2-yl)propyl]-3-(4-methylphenyl)quinoxaline-6-carboxamide] | 80 | 100 to 500 | 2 |  |  |  |
| O=C(NCCCc1ncc[nH]1)c1ccc2nc(OCc3cccc(Cl)c3)c(-c3ccc(F)cc3)nc2c1 [Compound I-498, 2-[(3-chlorobenzyl)oxy]-3-(4-fluorophenyl)-N-[3-(1H-imidazol-2-yl)propyl]quinoxaline-6-carboxamide] | 84 | < 100 | 3 |  |  |  |
| O=C(NCCCc1ncc[nH]1)c1ccc2nc(-c3ccc(F)cc3)c(-c3ccc(Cl)s3)nc2c1 [Compound I-499, 3-(5-chloro-2-thienyl)-2-(4-fluorophenyl)-N-[3-(1H-imidazol-2-yl)propyl]quinoxaline-6-carboxamide] | 98 | < 100 | 2 |  |  |  |
| O=C(NCCCc1ncc[nH]1)c1ccc2nc(OCC3CCCC3)c(-c3ccc(F)cc3)nc2c1 [Compound I-500, 2-(cyclopentylmethoxy)-3-(4-fluorophenyl)-N-[3-(1H-imidazol-2-yl)propyl]quinoxaline-6-carboxamide] | 93 | < 100 | 3 |  |  |  |
| N#Cc1ccc(F)c(-c2nc3cc(C(=O)NCCCc4ncc[nH]4)ccc3nc2-c2ccc(F)cc2)c1 [Compound I-501, 3-(5-cyano-2-fluorophenyl)-2-(4-fluorophenyl)-N-[3-(1H-imidazol-2-yl)propyl]quinoxaline-6-carboxamide] | 99 | < 100 | 2 |  |  |  |
| O=C(NCCCc1ncc[nH]1)c1ccc2nc(-c3ccc(F)cc3)c(-c3ccc(F)c(Cl)c3)nc2c1 [Compound I-502, N-(3-(1H-imidazol-2-yl)propyl)-3-(3-chloro-4-fluorophenyl)-2-(4-fluorophenyl)quinoxaline-6-carboxamide] | 97 | < 100 | 2 |  |  |  |
| Cc1cnn(-c2nc3ccc(C(=O)NCCCc4ncc[nH]4)cc3nc2-c2ccc(F)cc2)c1 [Compound I-503, 3-(4-fluorophenyl)-N-[3-(1H-imidazol-2-yl)propyl]-2-(4-methyl-1H-pyrazol-1-yl)quinoxaline-6-carboxamide] | 84 | 100 to 500 | 3 |  |  |  |
| O=C(NCCCc1ncc[nH]1)c1ccc2nc(-c3ccc(F)cc3)c(-c3sccc3Cl)nc2c1 [Compound I-504, 3-(3-chloro-2-thienyl)-2-(4-fluorophenyl)-N-[3-(1H-imidazol-2-yl)propyl]quinoxaline-6-carboxamide] | 93 | < 100 | 3 |  |  |  |
| CN1CCCC1CCOc1nc2ccc(C(=O)NCCCc3ncc[nH]3)cc2nc1-c1ccc(F)cc1 (stereo not drawn) [Compound I-505, 3-(4-fluorophenyl)-N-[3-(1H-imidazol-2-yl)propyl]-2-[2-(1-methylpyrrolidin-2-yl)ethoxy]quinoxaline-6-carboxamide] | > 99 | < 100 | 3 |  |  |  |
| CC(C)Oc1nc2ccc(C(=O)NCc3cn4cccnc4n3)cc2nc1-c1ccc(F)cc1 [Compound I-506, 3-(4-Fluorophenyl)-N-(imidazo[1,2-a]pyrimidin-2-ylmethyl)-2-isopropoxyquinoxaline-6-carboxamide] | 78 | 100 to 500 | > 99 |  |  |  |
| Cc1ccc(F)c(-c2nc3cc(C(=O)NCCCc4ncc[nH]4)ccc3nc2-c2ccc(F)cc2)c1 [Compound I-507, 3-(2-fluoro-5-methylphenyl)-2-(4-fluorophenyl)-N-[3-(1H-imidazol-2-yl)propyl]quinoxaline-6-carboxamide] | 97 | < 100 | 2 |  |  |  |
| O=C(NCCCc1cn[nH]c1)c1ccc2nc(-c3ccc(F)cc3)c(-c3ccc(F)cc3)nc2c1 [Compound I-508, 2,3-bis(4-fluorophenyl)-N-[3-(1H-pyrazol-4-yl)propyl]quinoxaline-6-carboxamide] | 73 | 100 to 500 | 3 |  |  |  |
| CN(C)CCOc1nc2ccc(C(=O)NCCCc3ncc[nH]3)cc2nc1-c1ccc(F)cc1 [Compound I-509, 2-[2-(dimethylamino)ethoxy]-3-(4-fluorophenyl)-N-[3-(1H-imidazol-2-yl)propyl]quinoxaline-6-carboxamide] | 94 | < 100 | 3 |  |  |  |
| CN1CCCC(COc2nc3ccc(C(=O)NCCCc4ncc[nH]4)cc3nc2-c2ccc(F)cc2)C1 (stereo not drawn) [Compound I-510, 3-(4-fluorophenyl)-N-[3-(1H-imidazol-2-yl)propyl]-2-[(1-methylpiperidin-3-yl)methoxy]quinoxaline-6-carboxamide] | 98 | < 100 | 2 |  |  |  |
| COc1cccc(-c2nc3cc(C(=O)NCCCc4ncc[nH]4)ccc3nc2OC(C)C)c1 [Compound I-511, N-[3-(1H-imidazol-2-yl)propyl]-2-isopropoxy-3-(3-methoxyphenyl)quinoxaline-6-carboxamide] | > 99 | < 100 | 2 |  |  |  |
| COc1cc(F)cc(-c2nc3cc(C(=O)NCCCc4ncc[nH]4)ccc3nc2-c2ccc(F)cc2)c1 [Compound I-512, 3-(3-fluoro-5-methoxyphenyl)-2-(4-fluorophenyl)-N-[3-(1H-imidazol-2-yl)propyl]quinoxaline-6-carboxamide] | 92 | < 100 | 2 |  |  |  |
| CN1CCC(COc2nc3ccc(C(=O)NCCCc4ncc[nH]4)cc3nc2-c2ccc(F)cc2)C1 (stereo not drawn) [Compound I-513, 3-(4-fluorophenyl)-N-[3-(1H-imidazol-2-yl)propyl]-2-[(1-methylpyrrolidin-3-yl)methoxy]quinoxaline-6-carboxamide] | 99 | < 100 | 3 |  |  |  |
| O=C(NCCCc1ncc[nH]1)c1ccc2nc(OC3CCNCC3)c(-c3ccc(F)cc3)nc2c1 [Compound I-514, 3-(4-fluorophenyl)-N-[3-(1H-imidazol-2-yl)propyl]-2-(piperidin-4-yloxy)quinoxaline-6-carboxamide] | 97 | < 100 | 3 |  |  |  |
| COc1cc(-c2nc3cc(C(=O)NCCCc4nnc[nH]4)ccc3nc2-c2ccc(F)cc2)c(F)cn1 [Compound I-515, 3-(5-fluoro-2-methoxypyridin-4-yl)-2-(4-fluorophenyl)-N-[3-(4H-1,2,4-triazol-3-yl)propyl]quinoxaline-6-carboxamide] | 75 | 100 to 500 | 1 |  |  |  |
| COc1cc(-c2nc3cc(C(=O)NCc4nc5cnccc5[nH]4)ccc3nc2-c2ccc(F)cc2)c(F)cn1 [Compound I-516, 3-(5-fluoro-2-methoxypyridin-4-yl)-2-(4-fluorophenyl)-N-(1H-imidazo[4,5-c]pyridin-2-ylmethyl)quinoxaline-6-carboxamide] | 93 | < 100 | 1 |  |  |  |
| CCOc1cc(-c2nc3cc(C(=O)NCCCc4ncc[nH]4)ccc3nc2-c2ccc(F)cc2)c(F)cn1 [Compound I-517, 3-(2-ethoxy-5-fluoropyridin-4-yl)-2-(4-fluorophenyl)-N-[3-(1H-imidazol-2-yl)propyl]quinoxaline-6-carboxamide] | 76 | 100 to 500 | 1 |  |  |  |
| CC(C)Oc1cc(-c2nc3cc(C(=O)NCCCc4ncc[nH]4)ccc3nc2-c2ccc(F)cc2)c(F)cn1 [Compound I-518, 3-(5-fluoro-2-isopropoxypyridin-4-yl)-2-(4-fluorophenyl)-N-[3-(1H-imidazol-2-yl)propyl]quinoxaline-6-carboxamide] | 86 | 100 to 500 | 1 |  |  |  |
| COc1cc(-c2nc3cc(C(=O)NCCCc4nccn4C)ccc3nc2-c2ccc(F)cc2)c(F)cn1 [Compound I-519, 3-(5-fluoro-2-methoxypyridin-4-yl)-2-(4-fluorophenyl)-N-[3-(1-methyl-1H-imidazol-2-yl)propyl]quinoxaline-6-carboxamide] | 97 | < 100 | 99 |  |  |  |
| O=C(NCCCc1nnc[nH]1)c1ccc2nc(-c3ccc(F)cc3)c(-c3cc(Cl)ccc3F)nc2c1 [Compound I-520, 3-(5-chloro-2-fluorophenyl)-2-(4-fluorophenyl)-N-[3-(4H-1,2,4-triazol-3-yl)propyl]quinoxaline-6-carboxamide] | 89 | < 100 | 1 |  |  |  |
| O=C(/C=C/c1cccnc1)NCCCCC1CCN(C(=O)c2ccccc2)CC1 [FK866] |  |  |  | efficacious | ameliorated the manifestations of experimental autoimmune encephalomyelitis | selectively block proliferation and induce apoptosis of activated T cells |
